Measured values from patent US8969297B2, “Methods and compositions for the induction of hypothermia” (priority 2009, dated 2015).

Columns and labels:
[1] = tested on: asphyxial cardiac arrest rat model; test: Survival in rat outcome model of asphyxial cardiac arrest; type: in vivo; settings: for Survival days: individual rats; for effect on mortality / neurological deficit score: compound alone under normothermic conditions
Description: (§1) The outcome model of asphyxial cardiac arrest in rats was used for these studies and has been described previously (Katz et al. (1995) J Cereb Blood Flow Metab 15:1032-1039). Briefly, rats were anesthetized with 4% isoflurane, intubated and mechanically ventilated, anesthesia was titrated and vessel catheters inserted. Cardiac arrest was induced by apneic asphyxia with chemical paralysis (vecuronium 2 mg/kg) and discontinuation of ventilation. After 10 minutes of asphyxial cardiac arrest, rats were resuscitated with mechanical ventilation, 100% O2, epinephrine (0.005 mg/kg) and chest compressions. Rats were extubated two hours after resuscitation and placed in a humidity and temperature controlled incubator. Rats were sacrificed by an overdose (5%) of inhaled isoflurane and then perfusion fixed with 100 ml of 4% paraformaldehyde at a perfusion pressure of 100 mmHg. Multiple coronal sections (10 μm thickness) of the brain (Paxinos et al. (1995) J Neurosci Methods 13:139-143) were cryosectioned for future immunostaining and histological evaluation.
(§2) Rats underwent ten minutes of asphyxial cardiac arrest and resuscitation. Five minutes after the return of spontaneous circulation (ROSC), rats were administered 15 ml/kg of iced normal (0.9%) saline (5° C.) (forced hypothermia) or half of the indicated treatment (at room temperature, 21° C.) intravenously over 20 minutes. The first infusion was followed immediately by a second 20-minutee infusion (15 ml/kg) with iced saline (5° C.) for the forced hypothermia group or the second half of the indicated treatment (at 21° C.).
(§3) The rat outcome model of asphyxial cardiac arrest was used to test each of the components of the cocktail to determine the effects of the components on NDS and performance in the Morris Water Maze. Rats undergoing forced hypothermia and rats maintained under normothermic conditions (with 0.5 U/kg vasopressin administered) served as controls.

[2] = tested on: asphyxial cardiac arrest rat model; test: Neurological deficit score (NDS) in rat model of asphyxial cardiac arrest; type: in vivo; settings: normothermic conditions; for NDS 72 hours after resuscitation: ethanol alone or vasopressin alone
Description: as §1, with “evaluation. […]” for “evaluation.”
The total ND score is composed of 5 components as outlined below. A normal rat has a ND score of 0% and a brain-dead rat has an ND score of 100% (Katz et al. (1995) J Cereb Blood Flow Metab 15:1032-1039).
as §2, with “Five” for “Rats underwent ten minutes of asphyxial cardiac arrest and resuscitation. Five”
as §3, with “controls. Raw survival and NDS data is shown in Table 1 and Table 2 provides a summary of the survival and NDS data.” for “controls.”

rats = settings: ethanol alone
Description: as §2

[3] = Gable (2004); cited from earlier work
[4] = 20 mcg/kg, normothermic conditions
[5] = 0.005 mg/kg, normothermic conditions
[6] = 0.8 g/kg, normothermic conditions
[7] = 1 mg/kg, normothermic conditions
[8] = 0.25 U/kg, normothermic conditions

## NCCc1ccc(O)c(O)c1 [Dopamine, dopamine]
[1]; [4]
  Average Survival days: 1 days
  Survival days: 1 days

## CNC[C@H](O)c1ccc(O)c(O)c1 [Epinephrine, epinephrine]
[1]; [5]
  Average Survival days: 1 days
  Survival days: 1 days
[1]; 0.01 mg/kg, normothermic conditions
  Average Survival days: 1 days

## CCO [Ethanol, ethanol]
[1]; 0.5 g/kg, normothermic conditions
  Average Survival days: 1 days
[1]; [6]
  Average Survival days: 1 days
  Survival days: 1 days
[1]; 1 g/kg, normothermic conditions
  Average Survival days: 1.5 days
[1]; 1.5 g/kg, normothermic conditions
  Average Survival days: 3 days
[1]; 2 g/kg, normothermic conditions
  Average Survival days: 3.33 days
[1]; 2.5 g/kg, normothermic conditions
  Average Survival days: 1 days
[1]; 3 g/kg, normothermic conditions
  Average Survival days: 1 days
[1]
  effect on mortality / neurological deficit score: mild reduction in mortality
[2]; 1.5 g/kg
  NDS day 3, median neurological deficit score: NA, (36.5)
[2]; 2 g/kg
  NDS day 3, median neurological deficit score: (31)
[2]; ethanol alone 1 g/kg, 1.5 g/kg and 2 g/kg
  neurological deficit score at 72 hours after resuscitation: reduced the neurological deficit score
[2]
  NDS 72 hours after resuscitation: 31
rats
  minimum dose able to reliably induce hypothermia: about 0.75 g/kg
rats; higher doses do not further lower the temperature
  dose at which the hypothermic effect plateaus: 3000 mg/kg
rats; maintained during infusion
  temperature reached: about 33 °C
[3]
  acute ingestion considered toxic: above 10 g/kg

## CCN(CC)CC(=O)Nc1c(C)cccc1C [Lidocaine, 2-(diethylamino)-N-(2,6-dimethylphenyl)acetamide]
[1]; [7]
  Average Survival days: 1 days
  Survival days: 1 days

## Cc1[nH]c(=O)c(C#N)cc1-c1ccncc1 [Milrinone]
[1]; 0.3 mg/kg, normothermic conditions
  Average Survival days: 1 days

## CC(=O)N[C@@H](CS)C(=O)O [N-Acetylcysteine, (2R)-2-acetamido-3-sulfanylpropanoic acid]
[1]; 50 mg/kg, normothermic conditions
  Average Survival days: 1.5 days
[1]; 150 mg/kg, normothermic conditions
  Average Survival days: 3 days
[1]; 300 mg/kg, normothermic conditions
  Average Survival days: 2.5 days
[2]; 150 mg/kg
  NDS day 3, median neurological deficit score: (38)
[2]; 300 mg/kg
  NDS day 3, median neurological deficit score: NA, (40)
[2]; 300 mg/kg, individual rats
  NDS day 3: NA, 40

## NC(=O)CC[C@@H]1NC(=O)[C@H](Cc2ccccc2)NC(=O)[C@H](Cc2ccc(O)cc2)NC(=O)[C@@H](N)CSSC[C@@H](C(=O)N2CCC[C@H]2C(=O)N[C@@H](CCCN=C(N)N)C(=O)NCC(N)=O)NC(=O)[C@H](CC(N)=O)NC1=O [Vasopressin]
[1]; 0.5 U/kg, normothermic conditions
  Average Survival days: 5 days
[1]; 0.75 U/kg, normothermic conditions
  Average Survival days: 3 days
[1]
  effect on mortality / neurological deficit score: minimal effect on mortality or the neurological deficit score
[1]; vasopressin alone, normothermic conditions
  enhancement of survival: approximately 3 fold
[2]; 0.5 U/kg
  NDS day 3, median neurological deficit score: (36)
[2]; 0.5 U/kg, individual rats
  NDS day 7: NA, NA, 22
[2]; 0.5 U/kg, single surviving rat (summary table)
  NDS day 7: NA, NA, 22
[2]; 0.75 U/kg
  NDS day 3, median neurological deficit score: (30)
[2]
  NDS 72 hours after resuscitation: 30
[2]; vasopressin alone
  neurological deficits 72 hours after resuscitation: reduced neurological deficits

## Insulin: antihyperglycemic compound
[1]; [8]
  Average Survival days: 2 days
  Survival days: 2 days
